Laboratory results reported in patent publication US20090238766A1, “BIOLUMINESCENT CONSTRUCT” (ABBOTT LABORATORIES, priority 2008, published 2009).

System: caspase-3/7
Experiment: In vivo bioluminescent imaging of VivoGlo Caspase-3/7 substrate and caspase-3/7 inactive substrate(s)
Conditions: mice bearing tumors stably expressing luciferase, treated with apoptosis-inducing cytotoxic therapy (e.g. docetaxel); substrate 62.5 mg/mL intraperitoneally; detected 5-30 minutes post injection
Procedure: In luciferase-expressing cells undergoing apoptosis, caspase-3/7 will cleave the DEVD peptide from the VivoGlo™ Caspase-3/7 substrate, allowing it to be a substrate for luciferase photon production. […] The photon emission will be detected with a photodetector device at timepoints from 5-30 minutes post injection and quantified.

Z-DEVD-aminoluciferin [VivoGlo Caspase-3/7]
bioluminescent signal (photon emission): significant bioluminescent signal
